The text below walks through data of patent publication US12410184B2, “Crystalline forms of a menin inhibitor” (Kura Oncology, Inc., priority 2023, dated 2025).

The nature of series [1]: Compound 1, Form 1 and Form 5 interconversion study (slurry in saturated solutions, XRPD). The class given is physicochemical. The note with it: conclusion from Table 5 interconversion study. The protocol: Saturated solutions of Compound 1, Form 1, in EtOH, MTBE, and isopropyl acetate at 50° C. were prepared. About 6 mg of Compound 1, Form 1, and Compound 1, Form 5, were weighed into each saturated solutions, and the resulting suspensions were slurried for 2 days at corresponding temperature. The resulting solids were sampled for XRPD analysis.

The nature of series [2]: Solid form stability under humidity or vacuum/heat. It is filed as physicochemical. On the procedure:
Treatment of Form 5 at 40° C., 75% relative humidity for 6 days provided mainly Form 4.
Treatment of Form 4 at 50° C. under vacuum and inert atmosphere for 5 days provided mainly Form 4.

As for `CNc1nc(NC2CCN(Cc3ccc4c(cc(C#N)n4C[C@H](C)N4CCN(S(C)(=O)=O)CC4)c3C)CC2)c2cc(CC(F)(F)F)sc2n1` [Compound 1, Form 1, (S)-4-methyl-5-((4-((2-(methylamino)-6-(2,2,2-trifluoroethyl)thieno[2,3-d]pyrimidin-4-yl)amino)piperidin-1-yl)methyl)-1-(2-(4-(methylsulfonyl)piperazin-1-yl)propyl)-1H-indole-2-carbonitrile], the “Thermodynamic stability of crystalline form” value in series [1] is “thermodynamically stable crystalline form”.
Regarding `CNc1nc(NC2CCN(Cc3ccc4c(cc(C#N)n4C[C@H](C)N4CCN(S(C)(=O)=O)CC4)c3C)CC2)c2cc(CC(F)(F)F)sc2n1` [Compound 1, Form 5, (S)-4-methyl-5-((4-((2-(methylamino)-6-(2,2,2-trifluoroethyl)thieno[2,3-d]pyrimidin-4-yl)amino)piperidin-1-yl)methyl)-1-(2-(4-(methylsulfonyl)piperazin-1-yl)propyl)-1H-indole-2-carbonitrile], the “Solid form after treatment” value in series [2] (40° C., 75% relative humidity, 6 days) is given as “mainly Form 4”.
`CNc1nc(NC2CCN(Cc3ccc4c(cc(C#N)n4C[C@H](C)N4CCN(S(C)(=O)=O)CC4)c3C)CC2)c2cc(CC(F)(F)F)sc2n1` [Compound 1, Form 4, (S)-4-methyl-5-((4-((2-(methylamino)-6-(2,2,2-trifluoroethyl)thieno[2,3-d]pyrimidin-4-yl)amino)piperidin-1-yl)methyl)-1-(2-(4-(methylsulfonyl)piperazin-1-yl)propyl)-1H-indole-2-carbonitrile]: the “Solid form after treatment” value in series [2] (50° C. under vacuum and inert atmosphere, 5 days) is given as “mainly Form 4”.
